# Assay results taken from ChEMBL document CHEMBL4004876, “Preliminary SAR on indole-3-carbinol and related fragments reveals a novel anticancer lead compound against resistant glioblastoma cells” (Bioorg Med Chem Lett, 2017).
# pEC50: −log10 of the molar value.
# Columns and labels:
# U-251 = assay: Cytotoxicity against human U251 cells assessed as decrease in cell proliferation after 72 hrs by SRB assay; assay type: functional, cell-based; settings: U-251, 72 h
# [1] = Cytotoxicity against human IN1528 cells assessed as decrease in cell proliferation after 72 hrs by SRB assay; assay type: functional, cell-based; settings: IN1528, 72 h
# [2] = Cytotoxicity against human IN1760 cells assessed as decrease in cell proliferation after 72 hrs by SRB assay; assay type: functional, cell-based; settings: IN1760, 72 h
# [3] = Cytotoxicity against human U87 cells assessed as decrease in cell proliferation after 72 hrs by SRB assay; assay type: functional, cell-based, U-87MG ATCC; settings: U-87 MG
# [4] = Cytotoxicity against human IN1472 cells assessed as decrease in cell proliferation after 72 hrs by SRB assay; assay type: functional, cell-based; settings: IN1472, 72 h
Structure (SMILES),pEC50 (U-251),pEC50 [1],pEC50 [2],pEC50 [3],pEC50 [4]
c1ccc2c(Cc3c[nH]c4ccccc34)c[nH]c2c1 [ARUNDINE],3.55,3.36,3.64,,
OCc1csc2ccccc12,2.91,2.40,2.97,,
c1ccc(-c2[nH]c3ccccc3c2Cc2c(-c3ccccc3)[nH]c3ccccc23)cc1,4.30,3.57,4.30,,
CC(=O)n1c(-c2ccccc2)c(CO)c2ccccc21,3.22,< 2.00,< 2.00,,
CC(=O)n1cc(CO)c2ccccc21,2.75,2.24,< 2.00,,
OCc1c(-c2ccccc2)[nH]c2ccccc12 [(2-PHENYL-1H-INDOL-3-YL)METHANOL],3.89,5.00,2.84,4.52,3.32
OCc1c[nH]c2ccccc12 [INDOLE-3-CARBINOL],3.41,3.92,2.80,3.54,3.02
OCCc1c[nH]c2ccccc12 [TRYPTOPHOL],2.91,2.76,2.34,3.24,2.71
OCCc1c(-c2ccccc2)[nH]c2ccccc12,3.60,5.40,3.48,3.96,3.46
Cc1ccc(S(=O)(=O)n2cc(CO)c3ccccc32)cc1,3.85,3.36,3.19,,
